Laboratory results: PubChem BioAssay AID200 (DTP/NCI, 2004)
Values joined by “and” are separate entries in the source; they are usually repeats but may differ in a detail not shown here. Identical values can stand only once. Inconclusive results and toxic doses are left out.

System: B6C3F1 mice, B16 melanoma ip, median survival T/C
Test: NCI In Vivo Anticancer Drug Screen. Data for tumor model B16 Melanoma (intraperitoneal) in B6C3F1 mice
Details: endpoint: median survival time, higher = longer survival
In short: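 Mice bearing transplanted tumor were dosed with compound or vehicle, and survival was recorded. Activity is expressed as the treated-group measurement (T) divided by the vehicle control measurement (C).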

SMILES: COC(=O)NC1C(C)OC(OC2C/C=C(/C)C3C=CC4C(OC5CC(OC6CCC(OC7CC(O)C(OC8CCC(O)C(C)O8)C(C)O7)C(C)O6)C(OC(C)=O)C(C)O5)C(C)CC(C)C4C3(C)/C(O)=C3/C(=O)OC4(CC(C=O)=CC(O)C4/C=C\2C)C3=O)CC1(C)[N+](=O)[O-] (stereo not given)
- T/C (dose: 1.25 mg/kg/injection, schedule: Q01DX009 (ip), vehicle: water): 114 % of control
- T/C (dose: 1.69 mg/kg/injection, schedule: Q03HX024 (ip), vehicle: water): 165 % of control
- T/C (dose: 2.4 mg/kg/injection, schedule: Q01DX005 (ip), vehicle: water): 124 % of control
- T/C (dose: 2.43 mg/kg/injection, schedule: Q01DX005 (iv), vehicle: water): 110 % of control
- T/C (dose: 2.5 mg/kg/injection, schedule: Q01DX009 (sc), vehicle: water): 98 % of control
- T/C (dose: 2.53 mg/kg/injection, schedule: Q03HX024 (ip), vehicle: water): 186 % of control
- T/C (dose: 3.0 mg/kg/injection, schedule: Q01DX005 (iv), vehicle: water): 99 % of control
- T/C (dose: 3.4 mg/kg/injection, schedule: Q03HX008 (ip), vehicle: water): 161 % of control
- T/C (dose: 3.6 mg/kg/injection, schedule: Q01DX005 (ip), vehicle: water): 160 % of control
- T/C (dose: 3.63 mg/kg/injection, schedule: Q01DX005 (iv), vehicle: water): 114 % of control
- T/C (dose: 3.77 mg/kg/injection, schedule: Q03HX024 (ip), vehicle: water): 173 % of control
- T/C (dose: 4.5 mg/kg/injection, schedule: Q01DX005 (iv), vehicle: water): 105 % of control
- T/C (dose: 4.5 mg/kg/injection, schedule: Q01DX009 (ip), vehicle: water): 161 % of control
- T/C (dose: 5.0 mg/kg/injection, schedule: Q01DX009 (sc), vehicle: water): 97 % of control
- T/C (dose: 5.08 mg/kg/injection, schedule: Q03HX008 (ip), vehicle: water): 171 % of control
- T/C (dose: 5.3 mg/kg/injection, schedule: Q01DX005 (ip), vehicle: water): 177 % of control
- T/C (dose: 5.4 mg/kg/injection, schedule: Q01DX005 (ip), vehicle: water): 165 % of control
- T/C (dose: 5.41 mg/kg/injection, schedule: Q01DX005 (iv), vehicle: water): 108 % of control
- T/C (dose: 5.63 mg/kg/injection, schedule: Q03HX024 (ip), vehicle: water): 203 % of control
- T/C (dose: 6.0 mg/kg/injection, schedule: Q01DX009 (sc), vehicle: water): 101 % of control
- T/C (dose: 6.7 mg/kg/injection, schedule: Q01DX005 (iv), vehicle: water): 105 % of control
- T/C (dose: 6.7 mg/kg/injection, schedule: Q01DX009 (ip), vehicle: water): 165 % of control
- T/C (dose: 6.74 mg/kg/injection, schedule: Q01DX009 (oral), vehicle: water): 98 % of control
- T/C (dose: 8.0 mg/kg/injection, schedule: Q01DX005 (ip), vehicle: water): 153 % of control and 159 % of control
- T/C (dose: 8.0 mg/kg/injection, schedule: Q01DX005 (iv), vehicle: water): 108 % of control and 120 % of control
- T/C (dose: 8.08 mg/kg/injection, schedule: Q01DX005 (iv), vehicle: water): 98 % of control
- T/C (dose: 8.1 mg/kg/injection, schedule: Q01DX005 (ip), vehicle: water): 175 % of control
- T/C (dose: 9.0 mg/kg/injection, schedule: Q01DX009 (sc), vehicle: water): 109 % of control
- T/C (dose: 9.1 mg/kg/injection, schedule: Q04DX003 (ip), vehicle: water): 177 % of control
- T/C (dose: 10.0 mg/kg/injection, schedule: Q01DX005 (iv), vehicle: water): 103 % of control
- T/C (dose: 10.0 mg/kg/injection, schedule: Q01DX009 (sc), vehicle: water): 100 % of control
- T/C (dose: 10.05 mg/kg/injection, schedule: Q01DX009 (oral), vehicle: water): 102 % of control
- T/C (dose: 12.0 mg/kg/injection, schedule: Q01DX005 (ip), vehicle: water): 171 % of control and 197 % of control
- T/C (dose: 12.0 mg/kg/injection, schedule: Q01DX005 (iv), vehicle: water): 108 % of control and 105 % of control
- T/C (dose: 12.06 mg/kg/injection, schedule: Q01DX001 (iv), vehicle: water): 116 % of control
- T/C (dose: 12.1 mg/kg/injection, schedule: Q01DX005 (iv), vehicle: water): 110 % of control
- T/C (dose: 13.0 mg/kg/injection, schedule: Q01DX005 (ip), vehicle: water): 162 % of control
- T/C (dose: 13.0 mg/kg/injection, schedule: Q01DX009 (sc), vehicle: water): 101 % of control
- T/C (dose: 13.5 mg/kg/injection, schedule: Q04DX003 (ip), vehicle: water): 165 % of control
- T/C (dose: 15.0 mg/kg/injection, schedule: Q01DX005 (iv), vehicle: water): 110 % of control
- T/C (dose: 15.0 mg/kg/injection, schedule: Q01DX009 (ip), vehicle: water): 180 % of control
- T/C (dose: 15.0 mg/kg/injection, schedule: Q01DX009 (oral), vehicle: water): 103 % of control
- T/C (dose: 18.0 mg/kg/injection, schedule: Q01DX001 (ip), vehicle: water): 191 % of control
- T/C (dose: 18.0 mg/kg/injection, schedule: Q01DX005 (ip), vehicle: water): 112 % of control
- T/C (dose: 18.0 mg/kg/injection, schedule: Q01DX005 (iv), vehicle: water): 110 % of control and 97 % of control and 104 % of control
- T/C (dose: 18.1 mg/kg/injection, schedule: Q01DX005 (ip), vehicle: water): 159 % of control
- T/C (dose: 20.0 mg/kg/injection, schedule: Q01DX005 (ip), vehicle: water): 121 % of control
- T/C (dose: 20.0 mg/kg/injection, schedule: Q01DX009 (sc), vehicle: water): 95 % of control and 103 % of control
- T/C (dose: 20.2 mg/kg/injection, schedule: Q04DX003 (ip), vehicle: water): 178 % of control
- T/C (dose: 22.39 mg/kg/injection, schedule: Q01DX009 (oral), vehicle: water): 96 % of control
- T/C (dose: 27.0 mg/kg/injection, schedule: Q01DX001 (ip), vehicle: water): 203 % of control
- T/C (dose: 27.0 mg/kg/injection, schedule: Q01DX001 (iv), vehicle: water): 108 % of control
- T/C (dose: 27.0 mg/kg/injection, schedule: Q01DX005 (iv), vehicle: water): 112 % of control and 106 % of control
- T/C (dose: 30.0 mg/kg/injection, schedule: Q01DX009 (sc), vehicle: water): 97 % of control
- T/C (dose: 33.41 mg/kg/injection, schedule: Q01DX009 (oral), vehicle: water): 101 % of control
- T/C (dose: 40.5 mg/kg/injection, schedule: Q01DX001 (ip), vehicle: water): 226 % of control
- T/C (dose: 40.5 mg/kg/injection, schedule: Q01DX001 (iv), vehicle: water): 121 % of control
- T/C (dose: 49.87 mg/kg/injection, schedule: Q01DX009 (oral), vehicle: water): 100 % of control

SMILES: CC(=O)OC1=C(Br)CCc2ccccc21
- T/C (dose: 3.12 mg/kg/injection, schedule: Q01DX009 (ip), vehicle: DMSO): 88 % of control
- T/C (dose: 6.25 mg/kg/injection, schedule: Q01DX009 (ip), vehicle: DMSO): 87 % of control
- T/C (dose: 12.5 mg/kg/injection, schedule: Q01DX009 (ip), vehicle: DMSO): 88 % of control
- T/C (dose: 25.0 mg/kg/injection, schedule: Q01DX009 (ip), vehicle: DMSO): 91 % of control

SMILES: COc1cc2cc(c1Cl)N(C)C(=O)/C=C/C1(C)OC1C(C)C1CC(O)(NC(=O)O1)C(OC)/C=C/C=C(\C)C2OC (stereo not given)
- T/C (dose: 4.0 micrograms/kg/injection, schedule: Q01DX009 (ip), vehicle: distilled water + alcohol): 117 % of control
- T/C (dose: 8.0 micrograms/kg/injection, schedule: Q01DX009 (ip), vehicle: distilled water + alcohol): 105 % of control
- T/C (dose: 16.0 micrograms/kg/injection, schedule: Q01DX009 (ip), vehicle: distilled water + alcohol): 112 % of control

SMILES: CC1C=NNC1=O (stereo not given)
- T/C (dose: 12.5 mg/kg/injection, schedule: Q01DX009 (ip), vehicle: Klucel (hydroxypropylcellulose) (HPC)): 100 % of control
- T/C (dose: 25.0 mg/kg/injection, schedule: Q01DX009 (ip), vehicle: Klucel (hydroxypropylcellulose) (HPC)): 102 % of control
- T/C (dose: 50.0 mg/kg/injection, schedule: Q01DX009 (ip), vehicle: Klucel (hydroxypropylcellulose) (HPC)): 117 % of control
- T/C (dose: 100.0 mg/kg/injection, schedule: Q01DX009 (ip), vehicle: Klucel (hydroxypropylcellulose) (HPC)): 92 % of control
- T/C (dose: 200.0 mg/kg/injection, schedule: Q01DX009 (ip), vehicle: Klucel (hydroxypropylcellulose) (HPC)): 95 % of control
- T/C (dose: 400.0 mg/kg/injection, schedule: Q01DX009 (ip), vehicle: Klucel (hydroxypropylcellulose) (HPC)): 95 % of control

SMILES: Nc1nc(-c2ccc(Cl)cc2)c(Br)c(=O)[nH]1
- T/C (dose: 13.0 mg/kg/injection, schedule: Q01DX009 (ip), vehicle: saline with Tween-80): 104 % of control
- T/C (dose: 26.0 mg/kg/injection, schedule: Q01DX009 (ip), vehicle: saline with Tween-80): 110 % of control
- T/C (dose: 52.0 mg/kg/injection, schedule: Q01DX009 (ip), vehicle: saline with Tween-80): 98 % of control
- T/C (dose: 104.0 mg/kg/injection, schedule: Q01DX009 (ip), vehicle: saline with Tween-80): 120 % of control

SMILES: CC(=O)Nc1ccc(/C=N/NC(N)=S)cc1
- T/C (dose: 25.0 mg/kg/injection, schedule: Q01DX009 (ip), vehicle: saline with Tween-80): 93 % of control
- T/C (dose: 50.0 mg/kg/injection, schedule: Q01DX009 (ip), vehicle: saline with Tween-80): 97 % of control
- T/C (dose: 100.0 mg/kg/injection, schedule: Q01DX009 (ip), vehicle: saline with Tween-80): 90 % of control
- T/C (dose: 200.0 mg/kg/injection, schedule: Q01DX009 (ip), vehicle: saline with Tween-80): 88 % of control
- T/C (dose: 400.0 mg/kg/injection, schedule: Q01DX009 (ip), vehicle: saline with Tween-80): 92 % of control
